The source of these data is ChEMBL document CHEMBL6074680, “Structure-Based Discovery of a Series of Covalent, Orally Bioavailable, and Selective BFL1 Inhibitors” (J Med Chem, 2024).

Calls of active or inactive are those of the source. Some results are limits rather than exact numbers.

Data set [1] in a line: Metabolic stability in rat hepatocytes assessed as intrinsic clearance measured per 10^6 cells. The class given is ADME, cell-based, Hepatocyte.
Data set [2] is described as follows: AUC in CD-1 mouse at 1 mg/kg, po or 0.5 mg/kg, iv measured upto 24 hrs by LC-MS/MS analysis. The following applies: in vivo. Format: ADME, organism-based.
The target of a further data set is T1, BCL2A1/BID (Homo sapiens, UniProt Q16548).
T1 sequence (Q16548 whole entry): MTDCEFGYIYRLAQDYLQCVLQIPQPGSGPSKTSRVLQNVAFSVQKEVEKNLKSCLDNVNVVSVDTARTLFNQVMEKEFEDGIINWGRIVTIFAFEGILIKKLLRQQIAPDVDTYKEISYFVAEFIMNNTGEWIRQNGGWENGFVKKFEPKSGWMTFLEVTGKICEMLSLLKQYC
T1 sequence (P55957 whole entry): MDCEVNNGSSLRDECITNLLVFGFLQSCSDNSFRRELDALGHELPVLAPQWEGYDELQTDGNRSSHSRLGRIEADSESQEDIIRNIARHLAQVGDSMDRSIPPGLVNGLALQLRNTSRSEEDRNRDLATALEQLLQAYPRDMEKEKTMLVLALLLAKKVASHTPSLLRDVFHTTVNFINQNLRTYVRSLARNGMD
Briefly: Inhibition of BFL-1/ BH3 (unknown origin) interaction incubated for 2 hrs by TR-FRET assay. The class given is protein assay.

Data set [3] deals with SU-DHL-1. The data set can be described thus: Antiproliferative activity against human SU-DHL-1 cells assessed as cell viability incubated for 24 hrs by celltiter-glo assay. The class given is functional, cell-based. The following applies: SU-DHL-1, 24 h. Background: Cellular ATP, detected with luciferase, serves as a proxy for viable cell number.
Data set [4] can be described thus: Plasma protein binding in mouse assessed as unbound fraction. Format: ADME, cell-free.
The nature of data set [5]: Metabolic stability in mouse hepatocytes assessed as intrinsic clearance measured per 10^6 cells. The class given is ADME, cell-based, Hepatocyte. The following applies: read-out: CLH.
A short description of data set [6]: Metabolic stability in human hepatocytes assessed as intrinsic clearance measured per 10^6 cells. The following applies: read-out: CLH. The class given is ADME, cell-based, Hepatocyte.
In data set [7] the target is Apoptosis regulator Bcl-2 (Homo sapiens, UniProt P10415). Briefly: Inhibition of BCL2 (unknown origin) by FRET assay.
The next data set concerns the target Bcl-2-like protein 1 (Homo sapiens, UniProt Q07817). Briefly: Inhibition of Bcl-Xl (unknown origin) by FRET assay.
Data set [8] is described as follows: Volume of distribution at steady state in CD-1 mouse at 1 mg/kg, po or 0.5 mg/kg, iv measured upto 24 hrs by LC-MS/MS analysis. The class given is ADME, organism-based. The following applies: in vivo.
Data set [9] is described as follows: Lipophilicity, log D of compound in 1-octanol at pH 7.4 incubated for 4 hrs by HPLC-UV analysis. Format: physicochemical. The following applies: 1-octanol / aqueous phase at pH 7.4, pH 7.4.
Data set [10] can be described thus: Oral bioavailability in CD-1 mouse at 1 mg/kg or 0.5 mg/kg measured upto 24 hrs by LC-MS/MS analysis. Format: ADME, organism-based. The following applies: in vivo.
Data set [11] in a line: Cmax in CD-1 mouse at 1 mg/kg, po or 0.5 mg/kg, iv measured upto 24 hrs by LC-MS/MS analysis. The class given is ADME, organism-based. The following applies: in vivo.
The nature of data set [12]: Half life in CD-1 mouse at 1 mg/kg, po or 0.5 mg/kg, iv measured upto 24 hrs by LC-MS/MS analysis. Format: ADME, organism-based. The following applies: in vivo.
Data set [13] is described as follows: Apparent permeability across apical to basolateral side in human Caco-2 cells measured upto 120 mins by LC-MS/MS analysis. Format: ADME, cell-based. On the technique in general: Caco-2 cells form a polarised layer with tight junctions and transporters.
Data set [14] concerns SU-DHL-1. Briefly: Induction of apoptosis in human SU-DHL-1 cells assessed as caspase activation in presence of AZD5991 incubated for 6 hrs by caspaseGlo 3/7 reagent based assay. Format: functional, cell-based. The following applies: SU-DHL-1, 6 h.
The nature of data set [15]: GSH reactivity in PBS buffer at pH 7.4 assessed as half life by LC-UV/MS analysis. The class given is physicochemical.
Data set [16] is described as follows: Metabolic stability in human liver microsome assessed as intrinsic clearance. The class given is ADME. The following applies: human liver microsomes, read-out: CLH.
In data set [17] the test system is SU-DHL-1. The data set can be described thus: Antiproliferative activity against human SU-DHL-1 cells assessed as cell survival upto 100 uM incubated for 24 hrs by celltiter-glo assay. Format: functional, cell-based.
Data set [18] has as its system KARPAS-422. Briefly: Antiproliferative activity against human KARPAS-422 cells assessed as cell survival at 10 uM incubated for 24 hrs by celltiter-glo assay. The class given is functional, cell-based.
The target of a further data set is Cannabinoid receptor 1 (Homo sapiens, UniProt P21554). The data set can be described thus: Inhibition of human CB1 receptor.
Data set [19] deals with KARPAS-422. Briefly: Antiproliferative activity against BFL1 null human KARPAS-422 cells assessed as cell viability incubated for 24 hrs by celltiter-glo assay. The class given is functional, cell-based.
Data set [20] concerns the target Induced myeloid leukemia cell differentiation protein Mcl-1 (Homo sapiens, UniProt Q07820). Briefly: Inhibition of MCL1 (unknown origin) by FRET assay.
Data set [21] relates to Mus musculus. The data set can be described thus: Effect on BFL1 level in po dosed SCID mouse measured for 6 hrs by MSD assay. The class given is functional, organism-based. The following applies: dose 100-300 mg/kg.
Data set [22] deals with Mus musculus. The data set can be described thus: Effect on cleaved caspase 3 level in po dosed SCID mouse measured for 6 hrs by MSD assay. Format: functional, organism-based. The following applies: dose 100-300 mg/kg.
The test system of a further data set is OCI-Ly10. Briefly: Induction of apoptosis in human OCI-Ly10 cells assessed as caspase activation incubated for 6 hrs by caspaseGlo 3/7 reagent based assay. Format: functional, cell-based.

Chain of Bcl-2-like protein 1 (Q07817 whole entry): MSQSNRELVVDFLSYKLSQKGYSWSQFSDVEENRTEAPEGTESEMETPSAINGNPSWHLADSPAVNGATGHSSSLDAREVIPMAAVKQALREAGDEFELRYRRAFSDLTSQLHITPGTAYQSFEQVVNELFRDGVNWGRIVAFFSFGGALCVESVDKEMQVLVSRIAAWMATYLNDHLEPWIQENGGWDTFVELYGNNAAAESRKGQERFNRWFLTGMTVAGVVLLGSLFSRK
Chain of Apoptosis regulator Bcl-2 (P10415 whole entry): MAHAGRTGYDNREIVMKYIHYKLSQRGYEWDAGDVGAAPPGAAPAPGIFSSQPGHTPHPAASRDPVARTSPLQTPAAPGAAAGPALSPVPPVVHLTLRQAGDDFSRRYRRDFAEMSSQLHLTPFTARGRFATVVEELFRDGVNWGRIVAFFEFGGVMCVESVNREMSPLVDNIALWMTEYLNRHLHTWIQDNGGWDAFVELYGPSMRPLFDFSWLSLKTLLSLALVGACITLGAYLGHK
Chain of Cannabinoid receptor 1 (P21554 whole entry): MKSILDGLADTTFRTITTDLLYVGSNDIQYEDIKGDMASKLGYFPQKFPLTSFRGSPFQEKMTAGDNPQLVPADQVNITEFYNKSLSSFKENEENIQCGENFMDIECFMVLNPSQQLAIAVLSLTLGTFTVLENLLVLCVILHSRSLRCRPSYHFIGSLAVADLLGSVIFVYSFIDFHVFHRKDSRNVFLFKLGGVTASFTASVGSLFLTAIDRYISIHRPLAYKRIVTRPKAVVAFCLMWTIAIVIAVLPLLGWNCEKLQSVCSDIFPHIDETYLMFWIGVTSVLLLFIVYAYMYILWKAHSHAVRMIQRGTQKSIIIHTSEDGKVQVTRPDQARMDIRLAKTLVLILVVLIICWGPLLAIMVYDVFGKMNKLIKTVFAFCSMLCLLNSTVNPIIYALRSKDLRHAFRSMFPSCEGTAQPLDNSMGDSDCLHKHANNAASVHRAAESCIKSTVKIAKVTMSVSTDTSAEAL
Chain of Induced myeloid leukemia cell differentiation protein Mcl-1 (Q07820 whole entry): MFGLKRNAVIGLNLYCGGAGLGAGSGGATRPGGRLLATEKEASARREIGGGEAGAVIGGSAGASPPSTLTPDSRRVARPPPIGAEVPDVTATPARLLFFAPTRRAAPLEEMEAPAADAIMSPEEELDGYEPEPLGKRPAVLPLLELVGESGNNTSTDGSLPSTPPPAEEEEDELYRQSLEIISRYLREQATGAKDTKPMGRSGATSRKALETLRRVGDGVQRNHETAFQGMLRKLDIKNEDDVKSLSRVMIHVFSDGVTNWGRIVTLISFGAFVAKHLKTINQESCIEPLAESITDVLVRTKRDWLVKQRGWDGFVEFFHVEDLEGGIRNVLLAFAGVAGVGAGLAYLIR

The term AUC denotes the area under the concentration-time curve, a measure of exposure. The low end stands for low exposure, the high end for high exposure. A word on the IC50: it is the midpoint of a concentration-inhibition curve. In general, EC50 refers to the concentration that produces a half-maximal response. As usually defined, the fraction unbound is the share of the substance not bound to proteins or other matrix. Broadly, the logD is lipophilicity at a set pH, counting ionised and neutral species. Lower therefore signals lower lipophilicity. Broadly, the bioavailability is dose-corrected exposure relative to a reference, in per cent. A word on the Cmax: it is the highest concentration seen after dosing. Broadly, the half-life is the time needed for the level to fall by half in the phase considered. As usually defined, the Papp A→B is the apparent permeability from the apical to the basolateral side of a cell layer. For the molecule `C=CC(=O)N(c1ccc(O[C@@H]2CC[C@@H](NC(=O)N[C@@H]3CCS(=O)(=O)C3)C2)c(F)c1)[C@@H](C)c1ccc(Cl)cc1`, the hepatocyte CLint in [1] (rat hepatocytes, read-out: CLH) amounted to 59 µL/min/1e6 cells; in data set [5], 69 µL/min/1e6 cells; in [6] it was 7.4 µL/min/1e6 cells. This molecule yielded an AUC at 24 h in data set [2] of 0.19 µM·h. The concentration for half-maximal inhibition (IC50) is 8.5 nM at BCL2A1/BID, more than 30000 nM in data set [7] and more than 30000 nM at Bcl-2-like protein 1. The EC50 worked out at 190 nM with SU-DHL-1 [3] and 83 nM with SU-DHL-1 [14]. The fraction unbound in data set [4] amounted to 0.027. The Vdss in data set [8] is 4 L/kg. Also, in data set [9], the logD at 4 h was determined as 3.7. Besides, in data set [10], the bioavailability amounted to 37%. The same molecule displayed a Cmax in data set [11] of 53 nM. Moreover, in data set [12], the half-life is 3.1 h. Further, the Papp A→B at 2 h in data set [13] was less than 11 ×10⁻⁶ cm/s.

`C=CC(=O)N(c1cc(F)c(O[C@@H]2CC[C@@H](N)C2)cc1C)[C@@H](C)c1ccc(Cl)cc1`: in [1] (hepatocytes), the hepatocyte CLint was 12 µL/min/1e6 cells. In addition, on BCL2A1/BID, the half-maximal inhibitory concentration (IC50) was 31 nM. Moreover, the half-life in data set [15] came out at 4.47 h. The same molecule registered a logD at 4 h in [9] of 2.7. The microsomal CLint in data set [16] stood at 9.4 µL/min/mg. In addition, the EC50 in the data set on SU-DHL-1 [14] was determined as 530 nM.

On to `C=CC(=O)N(c1ccc(O[C@@H]2CC[C@@H](N)C2)c(F)c1)[C@@H](C)c1ccc(Cl)cc1`, for which the result in the data set on SU-DHL-1 [17], with KARPAS-422 [19] and in the data set on OCI-Ly10 was Active. Further, in the data set on KARPAS-422 [18], the outcome was inactive. In addition, the EC50 in the data set on SU-DHL-1 [3] came out at 250 nM; in the data set with SU-DHL-1 [14], 350 nM. Further, the concentration for half-maximal inhibition (IC50) (at Cannabinoid receptor 1; in data set [20]) was more than 100000 nM in each case. Besides, the Activity entry in the data set with Mus musculus [21] and in the data set on Mus musculus [22] was “Dose-dependent-effect” throughout.

With `C=CC(=O)N(c1ccc(O[C@@H]2CC[C@@H](NC(=O)N[C@@H]3CCS(=O)(=O)C3)C2)c(Cl)c1)[C@@H](C)c1ccc(Cl)cc1`, the hepatocyte CLint in data set [1] (rat hepatocytes, read-out: CLH) is 55 µL/min/1e6 cells; in data set [5], 42 µL/min/1e6 cells; in [6], 11 µL/min/1e6 cells. Further, the AUC at 24 h in data set [2] worked out at 0.036 µM·h. For the same molecule, the IC50 against BCL2A1/BID was 5.4 nM; in data set [7], more than 30000 nM; against Bcl-2-like protein 1, more than 30000 nM. Besides, the EC50 came to 48 nM in the data set with SU-DHL-1 [3] and 38 nM with SU-DHL-1 [14]. For the same molecule, the fraction unbound in data set [4] is 0.013. In [8], this molecule displayed a Vdss of 4.1 L/kg. In addition, in data set [9], the logD at 4 h worked out at 4.2. In [10], the bioavailability worked out at 16%. Also, the Cmax in [11] was found to be 15 nM. For the same molecule, the half-life in data set [12] is 0.75 h. Besides, the Papp A→B at 2 h in data set [13] worked out at 16 ×10⁻⁶ cm/s.
